From patent US5824698A, “Antibacterial dibenzimidazole derivatives” (priority 1994, dated 1998)
Structures can show the parent of a compound that is named as a salt. Where two headings read alike, the source gives them in different places.

Key:
Type in all cases: cell-based
[1] = test system: Staph. haemolyticus 75; experiment: Antibacterial activity in vitro (MIC, standard agar method); conditions: Staphylococcus haemolyticus, DST agar, 35° C., 20 hours, read-out: Minimum inhibitory concentration (MIC)
Method: (§1) The minimum inhibitory concentration (MIC) of the substances investigated against gram-positive and gram-negative strains was determined using standard agar methods. The compounds were dissolved in a small amount of dimethyl sulphoxide, diluted with water and incorporated into liquified DST agar at 50° C. The thus-produced agar plates were used immediately thereafter in the test. The test concentrations lay between 128 and 0.06 μg/ml. The bacterial inoculation solutions were prepared from pre-cultures grown overnight, diluted and applied to the agar surface using an inoculation device (Denley A400). The plates were incubated at 35° C. for 20 hours. The MIC was determined as the lowest concentration of substance which prevented a visible growth. A scarcely visible turbidity and the growth of less than 5 colonies were ignored. The determinations of the antibacterial activities (Tab. 1) were carried out not only for the free bases, but also for the hydrochloride salt of each compound. The same values were obtained within experimental error.

[2] = test system: E. coli 1346; experiment: as above; conditions: Escherichia coli, DST agar, 35° C., 20 hours, read-out: Minimum inhibitory concentration (MIC)
Method: as §1

[3] = test system: P. aeroguinosa 3351; experiment: as above; conditions: read-out: Minimum inhibitory concentration (MIC)
Method: as §1

[4] = test system: E. faecalis 6; experiment: as above; conditions: read-out: Minimum inhibitory concentration (MIC)
Method: as §1

[5] = test system: E. cloacae P 99; experiment: as above; conditions: Enterobacter cloacae, P99, 20 h, read-out: Minimum inhibitory concentration (MIC)
Method: as §1

[6] = test system: S. haemolyticus 91; experiment: as above; conditions: Staphylococcus haemolyticus, DST agar, 35° C., 20 hours, read-out: Minimum inhibitory concentration (MIC)
Method: as §1

[7] = test system: E. coli B; experiment: as above; conditions: Escherichia coli, DST agar, 35° C., 20 hours, read-out: Minimum inhibitory concentration (MIC)
Method: as §1

[8] = test system: E. coli 159 R; experiment: as above; conditions: Escherichia coli, read-out: Minimum inhibitory concentration (MIC)
Method: as §1

[9] = test system: E. coli DC2; experiment: as above; conditions: Escherichia coli, read-out: Minimum inhibitory concentration (MIC)
Method: as §1

[10] = test system: P. aeruginosa 799/61; experiment: as above; conditions: Pseudomonas aeruginosa, read-out: Minimum inhibitory concentration (MIC)
Method: as §1

[11] = test system: E. coli AS-19; experiment: as above; conditions: Escherichia coli, AS19, DST agar, 35° C., 20 hours, read-out: Minimum inhibitory concentration (MIC)
Method: as §1

[12] = test system: Staph. aureus 25923; experiment: as above; conditions: Staphylococcus aureus, DST agar, 35° C., 20 hours, read-out: Minimum inhibitory concentration (MIC)
Method: as §1

[13] = test system: S. aureus 853; experiment: as above; conditions: Staphylococcus aureus, DST agar, 35° C., 20 hours, read-out: Minimum inhibitory concentration (MIC)
Method: as §1

[14] = test system: E. coli 1527 E; experiment: as above; conditions: Escherichia coli, read-out: Minimum inhibitory concentration (MIC)
Method: as §1

[15] = test system: S. aureus 101; experiment: as above; conditions: Staphylococcus aureus, DST agar, 35° C., 20 hours, read-out: Minimum inhibitory concentration (MIC)
Method: as §1

[16] = test system: Staph. aureus 887; experiment: as above; conditions: Staphylococcus aureus, DST agar, 35° C., 20 hours, read-out: Minimum inhibitory concentration (MIC)
Method: as §1

[17] = test system: E. coli H560; experiment: as above; conditions: Escherichia coli, read-out: Minimum inhibitory concentration (MIC)
Method: as §1

[18] = test system: E. coli K12 KEA-12 (GyrA); experiment: as above; conditions: Escherichia coli, 20 h, read-out: Minimum inhibitory concentration (MIC)
Method: as §1

[19] = test system: S. marcescens; experiment: as above; conditions: Serratia marcescens, read-out: Minimum inhibitory concentration (MIC)
Method: as §1

[20] = test system: Helicobacter pylori K 1585; experiment: Antibacterial activity against Helicobacter pylori in vitro (MIC, agar method); conditions: K1585, H. pylori K 1585, Muller-Hinton agar, 5% sheep blood, incubation 4 days, read-out: Minimum inhibitory concentration (MIC)
Method: as §1
(§2) The antibacterial activities against Helicobacter pylori were carried out analogously to the method described above with the following variations: The compounds were incorporated into Muller-Hinton agar containing 5% sheep blood additive. The test concentrations lay between 10 and 0.1 μg/ml. […]

[21] = test system: Helicobacter pylori PH 81; experiment: as above; conditions: PH81, H. pylori PH 81, Muller-Hinton agar, 5% sheep blood, incubation 7 days, read-out: Minimum inhibitory concentration (MIC)
Method: as §1, §2

[22] = test system: K. oxytoca 1082E; experiment: Antibacterial activity in vitro (MIC, standard agar method); conditions: Klebsiella oxytoca, DST agar, 35° C., 20 hours, read-out: Minimum inhibitory concentration (MIC)
Method: as §1

[23] = test system: E. coli 25922; experiment: as above; conditions: read-out: Minimum inhibitory concentration (MIC)
Method: as §1

[24] = test system: P. aeroginosa BA; experiment: as above; conditions: DST agar, 35° C., 20 hours, read-out: Minimum inhibitory concentration (MIC)
Method: as §1

[25] = test system: B. subtilis ATCC 585369; experiment: as above; conditions: Bacillus subtilis, ATCC585369, DST agar, 35° C., 20 hours, read-out: Minimum inhibitory concentration (MIC)
Method: as §1

[26] = Enterococcus faecalis, E. faecalis 6, DST agar, 35° C., 20 hours
[27] = E. coli 159 R, DST agar, 35° C., 20 hours
[28] = E. coli DC2, DST agar, 35° C., 20 hours
[29] = Escherichia coli, E. coli 25922, DST agar, 35° C., 20 hours

Measured: MIC

Oc1ccc(-c2nc3ccc(-c4ccc5nc(-c6ccc(O)c(F)c6)[nH]c5c4)cc3[nH]2)cc1F [Example 1, 2-Fluoro-4-[2'-(3-fluoro-4-hydroxy-phenyl)-6,6'-dibenzimidazol-2-yl]-phenol]
8 µg/mL: [6] | [8]; [27] | [12] | [15] | [17]; E. coli H560, DST agar, 35° C., 20 hours
0.25 µg/mL: [1]
16 µg/mL: [13] | [16]
> 64 µg/mL: [3]; P. aeroguinosa 3351, DST agar, 35° C., 20 hours | [5] | [7] | [9]; [28] | [10]; P. aeruginosa 799/61, DST agar, 35° C., 20 hours | [11] | [14]; E. coli 1527 E, DST agar, 35° C., 20 hours | [18] | [19]; S. marcescens, DST agar, 35° C., 20 hours
2 µg/mL: [4]; [26]
32 µg/mL: [2]

Cc1cc(-c2nc3ccc(-c4ccc5nc(-c6ccc(O)c(C)c6)[nH]c5c4)cc3[nH]2)ccc1O [Example 2]
4 µg/mL: [9]; [28] | [11]
128 µg/mL: [23]; Escherichia coli, 25922, 20 h
> 128 µg/mL: [3]; 20 h | [5] | [22] | [8]; 159R, 20 h | [10]; 799/61, 20 h | [17]; H560, 20 h | [18] | [24]
< 0.1 µg/mL: [21]
2 µg/mL: [2]
0.5 µg/mL: [7] | [15]
1 µg/mL: [20]
≤ 0.25 µg/mL: [1] | [4]; [26] | [12] | [13] | [16]

Oc1ccc(-c2nc3ccc(-c4ccc5nc(-c6ccc(O)cc6)[nH]c5c4)cc3[nH]2)cc1 [Example 5, 4-[2'-(4-Hydroxy-phenyl)-6,6'-dibenzimidazol-2-yl)-phenol hydrochloride]
≤ 0.12 µg/mL: [2] | [7] | [9]; [28] | [12] | [25] | [16]
0.25 µg/mL: [11] | [13]
≤ 0.06 µg/mL: [1] | [4]; Enterococcus faecalis, 6, 20 h
> 128 µg/mL: [3]; 20 h | [5] | [22] | [10]; 799/61, 20 h | [23]; [29] | [14]; 1527E, 20 h | [17]; H560, 20 h | [18] | [19]; 20 h | [24]
> 4 µg/mL: [8]; [27]
0.12 µg/mL: [6]
1 µg/mL: [20]
> 32 µg/mL: [15]
< 0.1 µg/mL: [21]

CCOc1ccc(-c2nc3ccc(-c4ccc5nc(-c6ccc(OCC)cc6)[nH]c5c4)cc3[nH]2)cc1 [Example 9, 2,2'-Bis-(4-ethoxy-phenyl)-6,6'-dibenzimidazole]
1 µg/mL: [1]
> 128 µg/mL: [3]; 20 h | [5] | [22] | [7] | [8]; 159R, 20 h | [9]; DC2, 20 h | [10]; 799/61, 20 h | [11] | [23]; Escherichia coli, 25922, 20 h | [14]; 1527E, 20 h | [17]; H560, 20 h | [18] | [19]; 20 h | [24]
≤ 0.5 µg/mL: [25] | [16]
2 µg/mL: [12]
64 µg/mL: [4]; [26]
16 µg/mL: [2]

CCOc1ccc(-c2nc3ccc(-c4ccc5nc(-c6ccc(O)cc6)[nH]c5c4)cc3[nH]2)cc1 [Example 11, 4-[2'-(4-Ethoxy-phenyl)-6,6'-dibenzimidazol-2-yl]-phenol]
> 128 µg/mL: [3]; 20 h | [5] | [22] | [8]; 159R, 20 h | [10]; 799/61, 20 h | [23]; [29] | [17]; H560, 20 h | [18] | [24]
0.5 µg/mL: [4]; [26] | [7] | [11] | [15]
1 µg/mL: [20] | [9]; [28]
0.25 µg/mL: [2] | [12] | [25] | [13] | [16]
< 0.1 µg/mL: [21]
0.12 µg/mL: [1]

N#Cc1ccc(-c2nc3ccc(-c4ccc5nc(-c6ccc(O)cc6)[nH]c5c4)cc3[nH]2)cc1 [Example 12, 4-[2'-(4-Hydroxy-phenyl)-6,6'-dibenzimidazol-2-yl]-benzonitrile]
0.25 µg/mL: [1]
2 µg/mL: [7] | [25] | [13] | [16]
8 µg/mL: [9]; [28]
1 µg/mL: [2] | [12]
4 µg/mL: [4]; [26] | [15]
> 128 µg/mL: [3]; 20 h | [5] | [22] | [8]; 159R, 20 h | [10]; 799/61, 20 h | [23]; [29] | [17]; H560, 20 h | [18] | [24]
32 µg/mL: [11]
